Laboratory results taken from ChEMBL document CHEMBL1133769, “Novel inhibitors of DNA gyrase: 3D structure based biased needle screening, hit validation by biophysical methods, and 3D guided optimization. A promising alternative to random screening” (J Med Chem, 2000).

Tests used:
[1] = target: DNA gyrase (Staphylococcus aureus) (UniProt P0A0K8+P20831)
Description: Maximal noneffective concentration for inhibition of DNA gyrase using supercoiling assay.

[2] = Dissociation constant determined by heteronuclear 1H/15N correlation NMR spectroscopy; type: physicochemical
[3] = system: Nucleic Acid; assay: Maximal noneffective concentration (MNEC) for inhibition of DNA gyrase; type: nucleic-acid assay

Chain of DNA gyrase (Staphylococcus aureus) (P0A0K8 2-644 limits assumed): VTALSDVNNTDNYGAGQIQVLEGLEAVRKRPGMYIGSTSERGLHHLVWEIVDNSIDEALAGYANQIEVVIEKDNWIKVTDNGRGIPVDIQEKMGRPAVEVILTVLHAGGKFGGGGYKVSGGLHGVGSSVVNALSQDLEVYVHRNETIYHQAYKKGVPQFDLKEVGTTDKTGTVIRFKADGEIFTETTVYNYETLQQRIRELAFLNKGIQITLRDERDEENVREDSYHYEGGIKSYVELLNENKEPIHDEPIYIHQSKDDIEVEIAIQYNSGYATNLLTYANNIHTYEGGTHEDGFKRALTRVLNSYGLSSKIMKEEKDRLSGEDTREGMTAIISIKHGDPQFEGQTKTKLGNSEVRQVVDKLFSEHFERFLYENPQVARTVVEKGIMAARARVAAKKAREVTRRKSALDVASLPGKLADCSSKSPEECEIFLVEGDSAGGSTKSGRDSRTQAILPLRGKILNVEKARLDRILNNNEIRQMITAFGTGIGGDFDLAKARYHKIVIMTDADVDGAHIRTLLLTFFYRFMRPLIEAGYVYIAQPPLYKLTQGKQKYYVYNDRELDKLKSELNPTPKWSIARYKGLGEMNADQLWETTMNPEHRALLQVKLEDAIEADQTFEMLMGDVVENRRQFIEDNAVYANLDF
Chain of DNA gyrase (Staphylococcus aureus) (P20831 whole entry partner): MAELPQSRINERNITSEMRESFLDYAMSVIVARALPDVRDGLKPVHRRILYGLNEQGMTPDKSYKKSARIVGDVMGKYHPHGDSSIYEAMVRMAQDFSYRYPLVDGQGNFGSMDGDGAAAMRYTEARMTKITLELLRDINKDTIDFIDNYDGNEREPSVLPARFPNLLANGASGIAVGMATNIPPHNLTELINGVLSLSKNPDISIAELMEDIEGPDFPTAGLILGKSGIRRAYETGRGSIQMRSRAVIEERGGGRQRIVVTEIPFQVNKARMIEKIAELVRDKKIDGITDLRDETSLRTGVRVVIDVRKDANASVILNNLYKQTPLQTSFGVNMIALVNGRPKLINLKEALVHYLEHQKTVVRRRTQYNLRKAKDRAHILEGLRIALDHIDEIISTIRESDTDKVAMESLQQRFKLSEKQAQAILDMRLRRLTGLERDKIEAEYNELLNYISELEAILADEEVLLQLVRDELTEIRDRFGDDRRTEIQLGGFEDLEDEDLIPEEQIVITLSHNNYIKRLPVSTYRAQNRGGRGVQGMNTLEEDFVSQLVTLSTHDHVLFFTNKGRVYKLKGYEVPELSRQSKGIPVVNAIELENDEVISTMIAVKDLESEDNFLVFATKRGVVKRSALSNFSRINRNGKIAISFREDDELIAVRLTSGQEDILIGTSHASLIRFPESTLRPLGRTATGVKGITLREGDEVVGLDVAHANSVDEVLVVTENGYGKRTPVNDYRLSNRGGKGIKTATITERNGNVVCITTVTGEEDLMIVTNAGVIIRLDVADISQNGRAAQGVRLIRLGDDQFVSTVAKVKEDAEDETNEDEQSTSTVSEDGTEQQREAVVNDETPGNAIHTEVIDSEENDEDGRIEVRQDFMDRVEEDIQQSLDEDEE

Row | SMILES | MNEC [1] [µg/mL] | Kd [2] [mM] | MNEC [3] [µg/mL]
1 | Cc1csc(NS(=O)(=O)c2ccc(F)cc2F)c1C(N)=O | 10 |  | 
2 | Nc1ccncn1 | > 250 |  | 
3 | Nc1ccccn1 | > 250 |  | 
4 | NC(=O)Oc1cc([N+](=O)[O-])ccc1CSCc1ccc(Cl)c(Cl)c1 | 31 |  | 
5 | c1ccc(-c2[nH]nc3ccccc23)cc1 | 8 |  | 
6 | Nc1ncncn1 | > 250 | 60 | 
7 | OC(CCCCl)c1cc2ccccc2[nH]1 (stereo not given) | 16 |  | 
8 | c1ccc2[nH]ncc2c1 |  |  | > 250
9 | N#Cc1cnc(S)nc1N | 16 |  | 
10 | O=[N+]([O-])c1ccc2[nH]nc(-c3ccccc3)c2c1 | 63 |  | 
11 | Cc1cc(=O)oc2cc(SCc3n[nH]c4cccc(OCc5ccccc5)c34)ccc12 | 0.25 |  | 
12 | Cc1cc(=O)oc2cc(SCc3n[nH]c4ccccc34)ccc12 | 8 |  | 
13 | Oc1ccc(Cl)cc1CNc1ccc(Cl)cc1 | 5 |  | 
14 | Nc1ncccn1 | > 250 | 60 | 
15 | Cc1c(O)cc(O)c2c1C(=O)OC[C@H](NC(=O)[C@@H]1[C@H](O)CCN1C(=O)[C@@H](N)CO)C(=O)N[C@H](C(=O)N[C@@H](C)C(=O)O)CSC2 | 0.05 |  | 
16 | Cc1[nH]c2ncnc(Cl)c2c1C | 31 |  | 
17 | Cc1cc(=O)oc2cc(SCc3n[nH]c4cccc(OCc5ccc(C(C)(C)C)cc5)c34)ccc12 | 0.03 |  | 
18 | CSc1nc(N)nc(SCCN2CCOCC2)n1 | 31 |  | 
